Measurements: ChEMBL document CHEMBL1158904, “New metabolites from the sponge Spongia agaricina” (J Nat Prod, 1998)
Converted amounts (≈) assume the structure as drawn.

Assays:
Format in all cases: functional, cell-based
P388 = assay: Cytotoxicity against mouse P388 cells
A549 = assay: Cytotoxicity against human A549 cells
HT-29 = assay: Cytotoxicity against human HT-29 cells
SK-MEL-28 = assay: Cytotoxicity against human SK-MEL-28 cells

Row | Structure (SMILES) | IC50 (P388) [µg/mL] | IC50 (A549) [µg/mL] | IC50 (HT-29) [µg/mL] | IC50 (SK-MEL-28) [µg/mL]
1 | C=C(CC[C@@H](C)[C@H]1CC[C@@H](C2=C[C@@H]3O[C@@]34C[C@@H](O)CC[C@]4(C)C2=O)[C@]1(C)CC=O)C(C)C | 1 (≈ 2.26 µM) | 1 (≈ 2.26 µM) | 1 (≈ 2.26 µM) | 1 (≈ 2.26 µM)
2 | CC(=O)O[C@@H]1C[C@H]2[C@]3(C)CC[C@H]4C(C)(C)CCC[C@]4(C)[C@H]3C[C@@H](O)[C@]2(C)c2occc21 | 1 (≈ 2.33 µM) | 1 (≈ 2.33 µM) | 1 (≈ 2.33 µM) | 1 (≈ 2.33 µM)
3 | CC(=O)O[C@H]1C[C@H]2[C@]3(C)CC[C@H]4C(C)(C)CCC[C@]4(C)[C@H]3C[C@@H](O)[C@]2(C)[C@H]2OC(=O)C=C12 | 5 (≈ 11.2 µM) | 5 (≈ 11.2 µM) | 5 (≈ 11.2 µM) | 5 (≈ 11.2 µM)
4 | CC(C)[C@@H](C)/C=C/[C@@H](C)[C@H]1CC[C@@H](C2=C[C@@H]3O[C@@]34C[C@@H](O)CC[C@]4(C)C2=O)[C@]1(C)CC=O [3-O-DEACETYLLUFFASTEROL B] | 1 (≈ 2.26 µM) | 1 (≈ 2.26 µM) | 1 (≈ 2.26 µM) | 1 (≈ 2.26 µM)
